Test results as given in patent US20050026296A1, “Diagnostic method based on lipid measuring parameter modulations/effector quotient profiles” (priority 2001, published 2005).

System: leukocytes from the peripheral blood
Experiment: Release of prostaglandin E2 (PGE2) and peptide leukotrienes (pLT) from leukocytes after modulation, quantified by EIA
Assay type: cell-based, human
Details: for PGE2 (lipid measurement parameter A) in cell culture supernatant / pLT (lipid measurement parameter B) in cell culture supernatant: 100,000 cells/ml, 37° C., 30 minutes; for Standardized effector quotient (PGE/pLT) / Standardized modulation quotient PGE2 / Standardized modulation quotient pLT: divided by quotient of standard group
Experimental: Human leukocytes of the peripheral blood are separated from plasma with the aid of a dextran gradient, and adjusted to a defined cell count (100,000 cells/ml). Subsequently, the stimulation is effected by incubation of the cells, e.g. without or while adding arachidonic acid as modulating indicator substance, or anti-IgE as modulating effector for a defined time (30 minutes) at 37° C. in cell culture medium (e.g. RPMI 1640). After sedimentation of the cells by centrifugation for 5 minutes with 800×g at 4° C., the cell-free supernatant is collected and can be stored at −80° C. under nitrogen or argon, if desired. Afterwards, these measurement samples are transferred to a polystyrol plate coated with prostaglandin E2 or peptide leukotrienes, respectively, and incubated for 18 hours at 4° C. while adding an anti-prostaglandin-E2- or anti-peptide-leukotriene-antibody, respectively, (“competitive assay”). After a washing step, an incubation at 23° C. for 2 hours is performed with a biotinylated secondary antibody against the first antibody. After further washing, incubation follows with a streptavidin-conjugated peroxidase at 23° C. for 1 hour, and after further washing, a peroxidase substrate is added and the optical density is determined after about 30 minutes with a multichannel photometer. With the aid of the standard curves carried along, the measurement values can now be quantified and used for calculating the lipid measurement parameter stimulation/effector quotient profiles (an example for the calculation is given herein below).
1) Leukocytes from the peripheral blood of investigation group 1/standard group/investigation group 2 are obtained by blood withdrawal, followed by density gradient separation (3% dextran solution) for separating plasma and leukocytes. The leukocytes thus obtained are washed 3 times with phosphate buffered solution (PBS) and pooled/resuspended in cell culture medium ([…]), before they are adjusted to a cell count of 100,000 cells/ml (investigation group 2 only in this example; in principle, a second group is not necessary for this test, but serves here for a better understanding and as second comparison group, both to the standard group and to the investigation group).
2) The cells are divided into 3 equal parts (e.g. 3 times with 1 ml cell suspension with 100,000 cells/ml each) in reaction vessels (e.g. plastic or glass vessels).
A control solution is added to the first part-sample (=without further modulator, =zero or blank value; control solution is the solvent, in which the modulators are dissolved).
Arachidonic acid is added to the second part-sample (concentration: 10^−5 M; =indicator substance).
An anti-immunoglobulin-E solution is added to the third part-sample (e.g. 1:100 dilution of the anti-human-IgE-solution from DAKO, =modulator or modulating substance).
Exposition/incubation with the indicator substance arachidonic acid and the modulator anti-immunoglobulin-E-solution is started simultaneously at e.g. 37° C. for e.g. 30 minutes.
Thereafter, the cells are separated from the cell culture medium, e.g. by centrifugation at 4° C. with a sedimentation force of e.g. 800×g. The supernatant obtained from the 3 part-samples, separated for each part-sample, is then collected in suitable vessels (e.g. cryovessels) and stored until EIA analysis at e.g. −70° C.
3) The contents of prostaglandin E2 (PGE2) and peptide leukotrienes (pLT9) in the cell culture supernatants of the 3 part-samples are analysed and quantified by enzyme immunological assays (EIA) specific for PGE2 (=lipid measurement parameter A) and pLT (=lipid measurement parameter B), respectively.

CCCCC/C=C\C/C=C\C/C=C\C/C=C\CCCC(=O)O [arachidonic acid]
PGE2 (lipid measurement parameter A) in cell culture supernatant (Investigation group 1 (I1)): 4120 ± 236 pg/mL | pLT (lipid measurement parameter B) in cell culture supernatant (Investigation group 1 (I1)): 150±10.4 pg/ml | Effector quotient (PGE/pLT) (Investigation group 1 (i1)): 27.5 | Modulation quotient PGE2 (modulated value / zero value A0) (Investigation group 1 (i1)): 11.8 | Modulation quotient pLT (modulated value / zero value B0) (Investigation group 1 (i1)): 1.3 | Standardized effector quotient (PGE/pLT) (Investigation group 1 (i1)): 0.941 | Standardized modulation quotient PGE2 (Investigation group 1 (i1)): 5.1 | Standardized modulation quotient pLT (Investigation group 1 (i1)): 0.21 | PGE2 (lipid measurement parameter A) in cell culture supernatant (Investigation group 2 (I2)): 3976 ± 245 pg/mL | pLT (lipid measurement parameter B) in cell culture supernatant (Investigation group 2 (I2)): 128 ± 10.4 pg/ml | Effector quotient (PGE/pLT) (Investigation group 2 (i2)): 31.1 | Modulation quotient PGE2 (modulated value / zero value A0) (Investigation group 2 (i2)): 1.8 | Modulation quotient pLT (modulated value / zero value B0) (Investigation group 2 (i2)): 2.4 | Standardized effector quotient (PGE/pLT) (Investigation group 2 (i2)): 1.065 | Standardized modulation quotient PGE2 (Investigation group 2 (i2)): 0.78 | Standardized modulation quotient pLT (Investigation group 2 (i2)): 0.38 | PGE2 (lipid measurement parameter A) in cell culture supernatant (Standard group (N)): 4170 ± 275 pg/mL | pLT (lipid measurement parameter B) in cell culture supernatant (Standard group (N)): 143 ± 12.4 pg/ml | Effector quotient (PGE/pLT) (Standard group (n)): 29.2 | Modulation quotient PGE2 (modulated value / zero value A0) (Standard group (n)): 2.3 | Modulation quotient pLT (modulated value / zero value B0) (Standard group (n)): 6.2 | Standardized effector quotient (PGE/pLT) (Standard group (n)): 1 (0.9-1.1) | Standardized modulation quotient PGE2 (Standard group (n)): 1 (0.8-1.2) | Standardized modulation quotient pLT (Standard group (n)): 1 (0.5-1.2) | induced synthesis of prostaglandin E2 compared with persons without pathological findings (analgesic intolerance): unstriking | elevation of induced synthesis of peptide leukotriene compared with persons without pathological findings (analgesic intolerance, unstriking to faintly elevated): 0-40%
